Test systems include MOLT-4; HT-29; HOP-92; SNB-19; SF-539; Malme-3M; OVCAR-4; NCI-H23; IGROV-1; EKVX; HCT-116; BT-549; HCT-15; A549; NCI-H460; NCI/ADR-RES; SK-MEL-5; MDA-MB-435; OVCAR-8; RXF 393.
Holding throughout (test): inhibition of tumour cell growth, NCI panel, 48 h

The structures appear in SMILES notation.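 Method: 48-hour compound exposure of cells in 96-well plates, five concentrations, linear interpolation of endpoints. At the GI50, growth is halved.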 The source made the active and inactive calls. No stated cut-off is given here; in the data, active = GI50 up to about 1.1 µM and inactive = higher.

For `N#CCN1c2ccccc2CCC1Cl` (stereo unspecified), the GI50 with MOLT-4, in the assay with HT-29, in the assay with HOP-92, in the assay on SNB-19, in the assay with SF-539 and in the assay on Malme-3M was > 10 µM (inactive) throughout. The GI50 with OVCAR-4, with NCI-H23, in the assay with IGROV-1, in the assay on EKVX, in the assay with HCT-116 and with BT-549 was > 10 µM (inactive) each time. The GI50 in the assay on HCT-15 is greater than 10 µM; in the assay on A549 it was > 10 µM (inactive); in the assay with NCI-H460 it was > 10 µM (inactive); in the assay with NCI/ADR-RES it was > 10 µM (inactive); in the assay with SK-MEL-5, > 10 µM (inactive); in the assay with MDA-MB-435, > 10 µM (inactive). For the same compound, in the assay with OVCAR-8, the GI50 was > 10 µM (inactive).

On to `COc1ccccc1[C@@H]1CCC2CC[C@@H](c3ccccc3OC)[N+]21Cc1ccccc1` (stereo partly specified), for which the GI50 is 1.83 µM (inactive) in the assay with MOLT-4; 0.847 µM (active) with HT-29; 0.968 µM (active) with HOP-92; 0.982 µM (active) in the assay with SNB-19; 2.3 µM (inactive) in the assay with Malme-3M; 1.64 µM (inactive) in the assay on OVCAR-4. In addition, the GI50 in the assay with NCI-H23 was 0.948 µM (active); in the assay on IGROV-1 it was 1.34 µM (inactive); in the assay on EKVX, 0.223 µM (active); in the assay with HCT-116, 1.6 µM (inactive); with RXF 393, 2 µM (inactive); in the assay on BT-549, 0.893 µM (active). Moreover, the GI50 is 3.76 µM with HCT-15; 1.99 µM (inactive) with A549; 13 µM (inactive) in the assay on NCI/ADR-RES; 0.36 µM (active) with SK-MEL-5; 0.585 µM (active) in the assay with MDA-MB-435; 1.27 µM (inactive) in the assay on OVCAR-8.

On to `O=[N+]([O-])c1ccc(OCc2nnc(CCCCCCCCc3nnc(COc4ccc([N+](=O)[O-])cc4)o3)o2)cc1`, for which the GI50 with MOLT-4, in the assay on HT-29, in the assay with HOP-92, in the assay on SNB-19, in the assay on Malme-3M and with OVCAR-4 was > 100 µM (inactive) each time. For the same compound, the GI50 is 81.5 µM (inactive) in the assay on NCI-H23; > 100 µM (inactive) with IGROV-1; > 100 µM (inactive) with EKVX; 77.6 µM (inactive) with HCT-116; 25.1 µM (inactive) with RXF 393; > 100 µM (inactive) in the assay with BT-549. In addition, the GI50 in the assay with HCT-15 is greater than 100 µM; in the assay on A549 it was > 100 µM (inactive); with NCI-H460, > 100 µM (inactive); with NCI/ADR-RES, > 100 µM (inactive); in the assay with SK-MEL-5, > 100 µM (inactive); in the assay on MDA-MB-435, > 100 µM (inactive).

For `CC1CSc2nc3nc(S)nc-3c(O)n2C1` (stereo unspecified), the GI50 in the assay with MOLT-4, in the assay on SNB-19, in the assay with SF-539, with Malme-3M, with OVCAR-4 and in the assay with NCI-H23 was > 100 µM (inactive) in each case. Further, the GI50 with IGROV-1 was > 100 µM (inactive); in the assay on EKVX it was > 100 µM (inactive); with HCT-116, > 100 µM (inactive); with RXF 393, > 100 µM (inactive); in the assay on BT-549, > 100 µM (inactive); in the assay with HCT-15 it was greater than 100 µM. In addition, the GI50 with A549, in the assay on NCI-H460, in the assay with NCI/ADR-RES, with SK-MEL-5, with MDA-MB-435 and in the assay with OVCAR-8 was > 100 µM (inactive) each time.

Turning to `COc1ccc(-c2nnc(CCCCCCCCc3nnc(-c4ccc(OC)cc4)o3)o2)cc1`, the GI50 in the assay with MOLT-4 is > 100 µM (inactive); in the assay on HT-29, > 100 µM (inactive); in the assay on HOP-92 it was 41.1 µM (inactive); in the assay with SNB-19, 36.4 µM (inactive); in the assay on SF-539, 63.7 µM (inactive); in the assay with Malme-3M, > 100 µM (inactive). Also, the GI50 was > 100 µM (inactive) in the assay on OVCAR-4; > 100 µM (inactive) with NCI-H23; > 100 µM (inactive) with IGROV-1; > 100 µM (inactive) in the assay on EKVX; 60.7 µM (inactive) in the assay with HCT-116; 16.7 µM (inactive) in the assay on BT-549. The GI50 in the assay with HCT-15 is greater than 100 µM; with A549, > 100 µM (inactive); in the assay on NCI-H460, > 100 µM (inactive); in the assay on NCI/ADR-RES, > 100 µM (inactive); in the assay on SK-MEL-5, > 100 µM (inactive); with MDA-MB-435, > 100 µM (inactive). Moreover, the GI50 in the assay on OVCAR-8 is 57.9 µM (inactive).

Regarding `COc1cc(=O)oc(/C=C/C=C/C=C/C(C)=C\C2(C)OC(C)C(C)(O)C2O)c1C` (stereo unspecified), the GI50 in the assay on MOLT-4, with HT-29, in the assay with HOP-92, with SNB-19, in the assay with SF-539 and in the assay with NCI-H23 was > 100 µM (inactive) in each case. In addition, the GI50 in the assay on IGROV-1 was > 100 µM (inactive); in the assay with EKVX, > 100 µM (inactive); in the assay with HCT-116 it was > 100 µM (inactive); in the assay with BT-549, > 100 µM (inactive); in the assay with HCT-15, greater than 100 µM; with A549, > 100 µM (inactive). For the same compound, the GI50 in the assay with NCI-H460, in the assay with NCI/ADR-RES, in the assay on SK-MEL-5, in the assay on MDA-MB-435 and in the assay with OVCAR-8 was > 100 µM (inactive) each time.

Consider `O=C1/C(=C\c2cccs2)Oc2ccccc21`, for which the GI50 was 33.9 µM (inactive) with MOLT-4; 63.7 µM (inactive) in the assay on HT-29; 35.2 µM (inactive) in the assay with HOP-92; 75.3 µM (inactive) in the assay with SNB-19; 31.5 µM (inactive) with OVCAR-4; 40.6 µM (inactive) in the assay with NCI-H23. In addition, the GI50 in the assay with IGROV-1 was 26.7 µM (inactive); in the assay on EKVX, 25.9 µM (inactive); with HCT-116, 60.4 µM (inactive); in the assay with RXF 393, 65.8 µM (inactive); in the assay with BT-549, 41.2 µM (inactive); in the assay with HCT-15, 36.6 µM. In addition, the GI50 was 56.9 µM (inactive) in the assay with A549; 53.1 µM (inactive) in the assay with NCI-H460; 54.7 µM (inactive) with NCI/ADR-RES; 51.6 µM (inactive) with SK-MEL-5; 98.6 µM (inactive) in the assay with MDA-MB-435; 70.8 µM (inactive) in the assay with OVCAR-8.

Regarding `CC(CCOc1ccc2ccc(=O)oc2c1)C1=CC(=O)C(C)(C)O1` (stereo unspecified), the GI50 with MOLT-4 is 2.12 µM (inactive); in the assay on HT-29, 3.3 µM (inactive); with HOP-92, 3.56 µM (inactive); with SNB-19, 3.09 µM (inactive); in the assay on SF-539, 1.69 µM (inactive); in the assay on Malme-3M it was 3.04 µM (inactive). In addition, the GI50 in the assay with OVCAR-4 was 5.73 µM (inactive); in the assay with NCI-H23 it was 2.81 µM (inactive); with IGROV-1 it was 3.2 µM (inactive); with EKVX it was 2.68 µM (inactive); with HCT-116, 2.64 µM (inactive); with BT-549, 2.72 µM (inactive). The GI50 in the assay on HCT-15 is 1.71 µM; with A549, 2.87 µM (inactive); in the assay on NCI-H460 it was 1.86 µM (inactive); in the assay on NCI/ADR-RES it was 2.12 µM (inactive); in the assay on SK-MEL-5, 5.13 µM (inactive); in the assay with MDA-MB-435 it was 2.56 µM (inactive). Moreover, the GI50 in the assay on OVCAR-8 was 1.96 µM (inactive).

The values are drawn from ChEMBL document CHEMBL1201862, “PubChem BioAssay data set” (2004).
